Marks after values point to notes of the source that are not given here. Square brackets hold non-standard residues; d marks the D form. Peptide text beside a SMILES is read from it. * marks the point of attachment. Phe(4-Cl) = N[C@@H](Cc1ccc(Cl)cc1)C(=O)O; hArg = N=C(N)NCCCC[C@H](N)C(=O)O; Nle = CCCC[C@H](N)C(=O)O; Abu = CC[C@H](N)C(=O)O; PhAc = O=C(Cc1ccccc1)*
How the values were obtained:
IGF-I = assay: PC-3 xenografts, Experiment 2: serum IGF-I (RIA); assay type: in vivo, nude mice; details: 5 μg/day s.c., 28 days; for Serum IGF-I (% inhibition): vs control
Description: For the measurement of GH and IGF-I levels in the serum, as well as IGF-I and IGF-II concentrations in the cytosol fraction of tumors, blood samples and tumor samples were collected and processed as described (Braczkowski R, Schally A V, Plonowski A, Varga J L, Groot K, Krupa M, Armatis P, Cancer 95: 1735-1745, 2002), hereby incorporated by reference. Briefly, blood samples are centrifuged to separate the serum, tumors are homogenized and centrifuged to separate the cytosol fraction. Serum GH is then measured by the double-antibody RIA method. Before measurement by RIA, IGF-I and IGF-II are extracted from serum and cytosol fractions using an acid-ethanol cryoprecipitation method that eliminates most of the IGF binding proteins, which can interfere with the RIA. IGF-I concentration is measured by RIA using IGF-I as a standard and goat anti-IGF-I antibody (both from DSL Inc., Webster, Tex.). IGF-II concentration is measured by RIA using human recombinant IGF-II (Bachem) as a standard and anti-IGF-II monoclonal antibody (Amano International Enzyme, Troy, Va.).
(§1) Male nude mice were implanted s.c. with 3 mm^3 pieces of PC-3 human hormone-independent prostate cancer tissue on both flanks. When tumors reached a volume of approx. 50 mm^3, the mice were divided into 5 experimental groups with 7 to 8 animals in each group and received single daily injections for 28 days as follows: 1. Control (vehicle solution); 2. JV-1-38 (10 μg/day s.c.); 3 Peptide 31 (10 μg/day s.c.); 4. Peptide 67 (10 μg/day s.c.); 5. Peptide 62 (10 μg/day s.c.). Tumor volumes were measured twice a week. The experiment was ended on day 29 by sacrificing the mice under Isoflurane anesthesia. Resulting tumors were cleaned, weighed, and snap-frozen until further analyses. Trunk blood was collected from the abdominal aorta and serum was separated for RIA measurement of IGF-I. Statistical analyses of the measurement results were done by two-tailed t-test; data are presented as the means±S.E.
(§2) Experiment 2 was similar to Experiment 1, with the difference that Experiment 2 was started when PC-3 tumors had grown to approximately 30 mm^3 in volume. At this time, the animals were divided into 8 experimental groups with 8 animals in each group, and received single daily injections for 28 days as follows. 1. Control (vehicle solution); 2. JV-1-38 (10 μg/day s.c.); 3. Peptide 46 (5 μg/day: s.c.); 4. Peptide 77 (5 μg/day s.c); 5. Peptide 76 (5 μg/day s.c.); 6. Peptide 70 (5 μg/day s.c.); 7 Peptide 79 (5 μg/day s.c.); 8. Peptide 80 (5 μg/day s.c.). Further details of Experiment 2 are the same as for Experiment 1.

[1] = tested on: PC-3 human prostate cancer xenografts; assay: PC-3 xenografts in nude mice, Experiment 2: tumor growth; assay type: in vivo; details: for Tumor volume (mm^3) Initial: 5 μg/day groups, at start of treatment; for Tumor volume (mm^3) Final / Tumor volume doubling time / Tumor weight / Tumor volume Final (% inhibition) / Tumor weight (% inhibition): 5 μg/day s.c., 28 days; for Tumor volume Final (% inhibition) / Tumor weight (% inhibition): vs control
Protocol: as §1, §2

[2] = tested on: GH-RH receptor isoforms on membrane fractions of human PC-3 prostate tumors; assay type: binding; details: general statement
Description: Ligand competition assays with ^125I-labeled GH-RH antagonist JV-1-42 were used to determine the binding affinities of GH-RH analogs to the GH-RH receptor isoforms on membrane fractions of human PC-3 prostate tumors. The methods used have been described in detail (Halmos G, Schally A V, Varga J L, Plonowski A, Rekasi Z, Czompoly T, Proc Natl Acad Sci USA 97: 10555-10560, 2000; Halmos G, Schally A V, Czompoly T, Krupa M, Varga J L, Rekasi Z, J Clin Endocrinol Metab 87: 4707-4714, 2002), hereby incorporated by reference. Briefly, radioiodinated derivatives of JV-142 are prepared by the chloramine-T method. PC-3 tumors, grown as xenografts in nude mice, are used to prepare crude membranes. PC-3 membrane homogenates are incubated with [^125I]JV-142 and increasing concentrations (10^−12 to 10^−6 M) of nonradioactive antagonist peptides as competitors. The pellet is separated by centrifugation and counted for radioactivity in a gamma-counter. The final binding affinities are estimated by K1 (dissociation constant of the inhibitor-receptor complex) and are determined by the Ligand PC and McPherson computer programs of Munson and Rodbard (P. J. Munson and D. Rodbard, Anal. Biochem. […]: 220-239, 1980). Relative affinities (R.A.) compared to reference peptides such as JV-1-36 or JV-1-38, are calculated as the ratio of K1 of the reference peptide to the K, of the tested GH-RH antagonist.

[3] = tested on: hGH-RH(1-29)NH2 induced GH release; assay: Inhibition of GH release in superfused rat pituitary system; assay type: cell-based; details: for GH response (% of control) 0 min / GH response (% of control) 30 min / GH response (% of control) 60 min / GH response (% of control) 90 min / GH response (% of control) 120 min: antagonist 30 nM; for GH response (% of control) 0 min: 1 nM hGH-RH(1-29)NH2 at 0 min; for GH response (% of control) 30 min: 1 nM hGH-RH(1-29)NH2 at 30 min; for GH response (% of control) 60 min: 1 nM hGH-RH(1-29)NH2 at 60 min; for GH response (% of control) 90 min: 1 nM hGH-RH(1-29)NH2 at 90 min; for GH response (% of control) 120 min: 1 nM hGH-RH(1-29)NH2 at 120 min
Method in brief: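 GH output was quantified by double-antibody RIA in superfusates of rat pituitary cells. Peptides were applied for 9 min at various concentrations before a 3-min 1 nM hGH-RH(1-29)NH2 pulse, with further pulses 30–120 min later; net integral responses given as percent of the original response.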

[4] = tested on: PC-3 human prostate cancer xenografts; assay: PC-3 xenografts in nude mice, Experiment 3: tumor growth; assay type: in vivo; details: for antitumor effect on PC-3 tumors (in words): 10 μg/day; for Tumor volume (mm^3) Final / Tumor volume doubling time / Tumor weight / Tumor volume Final (% inhibition) / Tumor weight (% inhibition): 10 μg/day s.c., 28 days; for Tumor volume Final (% inhibition) / Tumor weight (% inhibition): vs control; for Tumor volume (mm^3) Initial: at start of treatment
Protocol: Male nude mice were implanted s.c. with 3 mm^3 pieces of PC-3 human hormone-independent prostate cancer tissue on both flanks. When tumors reached a volume of approximately 65 mm^3, the mice were divided into 7 experimental groups with 8 to 9 animals in each group and received single daily injections for 28 days as follows: 1. Control (vehicle solution); 2. JV-1-38 (10 μg/day s.c.); 3. Peptide 35 (10 μg/day s.c.); 4. Peptide 36 (10 μg/day s.c.); 5. Peptide 37 (10 μd/day s.c.); 6. Peptide 39 (10 μg/day s.c.); 7. Peptide 41 (10 μg/day s.c.). Tumor volumes were measured twice a week. The experiment was ended on day 28 by sacrificing the mice under Isofurane anesthesia. Resulting tumors were cleaned, weighed, and snapfrozen until further analyses. Trunk blood was collected from the abdominal aorta and serum was separated for RIA measurement of IGF-I. Statistical analyses of the measurement results were done by ANOVA followed by Fisher test; data are presented as the means±S.E.

[CH3(CH2)6CO-Tyr^1, D-Arg^2, Phe(pCl)^6, Amp^9, Tyr(Me)^10, Abu^15, Nle^27, D-Arg^28, Har^29]hGH-RH(1-29)NH2 [Peptide 70]
Serum IGF-I (IGF-I): 175 ± 12.9 ng/mL | Serum IGF-I (% inhibition) (IGF-I): 33% | Tumor volume (mm^3) Initial [1]: 26.5 ± 3.7 mm^3 | Tumor volume (mm^3) Final [1]: 199 ± 40.4*# mm^3 | Tumor volume doubling time [1]: 12.6 ± 2.5 days | Tumor weight [1]: 119 ± 25.3 mg | Tumor volume Final (% inhibition) [1]: (43%) | Tumor weight (% inhibition) [1]: (58%) | binding affinities to the tumoral receptors for GH-RH (in words) [2]: extremely high binding affinities

[PhAc-Tyr^1, D-Arg^2, Phe(pCl)^6, Har^9, Phe(pNO2)^10, Abu^15, Nle^27, D-Arg^28, Har^29]hGH-RH(1-29)NH2 [Peptide 39]
GH response (% of control) 0 min [3]: 63 % of control | GH response (% of control) 30 min [3]: 54 % of control | GH response (% of control) 60 min [3]: 36 % of control | GH response (% of control) 90 min [3]: 37 % of control | GH response (% of control) 120 min [3]: 36 % of control | antitumor effect on PC-3 tumors (in words) [4]: more potent antitumor effect than reference peptide JV-1-38 | Tumor volume (mm^3) Final [4]: 271 ± 109** mm^3 | Tumor volume doubling time [4]: 19.6 ± 2.10 days | Tumor weight [4]: 247 ± 55.4 mg | Tumor volume Final (% inhibition) [4]: (66%) | Tumor weight (% inhibition) [4]: (65%) | Tumor volume (mm^3) Initial [4]: 66.7 ± 11.2 mm^3 | binding affinities to the tumoral receptors for GH-RH (in words) [2]: extremely high binding affinities

[PhAc-Tyr^1, D-Arg^2, Phe(pCl)^6, Har^9, Tyr(Me)^10, Abu^15, Nle^27, D-Arg^28, Har^29]hGH-RH(1-29)NHEt [Peptide 46]
Serum IGF-I (IGF-I): 288 ± 17.9 ng/mL | Serum IGF-I (% inhibition) (IGF-I): 0% | GH response (% of control) 0 min [3]: 91 % of control | GH response (% of control) 30 min [3]: 28 % of control | GH response (% of control) 60 min [3]: 31 % of control | GH response (% of control) 90 min [3]: 56 % of control | GH response (% of control) 120 min [3]: 30 % of control | Tumor volume (mm^3) Initial [1]: 26.6 ± 2.7 mm^3 | Tumor volume (mm^3) Final [1]: 246 ± 93.7 mm^3 | Tumor volume doubling time [1]: 11.2 ± 1.3 days | Tumor weight [1]: 188 ± 66.1 mg | Tumor volume Final (% inhibition) [1]: (30%) | Tumor weight (% inhibition) [1]: (34%)

CCCC[C@H](NC(=O)[C@@H](NC(=O)[C@H](CC(=O)O)NC(=O)[C@H](CCC(N)=O)NC(=O)[C@H](CC(C)C)NC(=O)[C@H](CC(C)C)NC(=O)[C@H](CCCCN)NC(=O)[C@H](CCCNC(=N)N)NC(=O)[C@H](C)NC(=O)[C@H](CO)NC(=O)[C@H](CC(C)C)NC(=O)[C@H](CCC(N)=O)NC(=O)[C@H](CC)NC(=O)[C@H](CC(C)C)NC(=O)[C@@H](NC(=O)[C@H](CCCCN)NC(=O)[C@H](CCCNC(=N)N)NC(=O)[C@H](Cc1ccc(OCC)cc1)NC(=O)[C@H](CCCCNC(=N)N)NC(=O)[C@H](CC(N)=O)NC(=O)[C@@H](NC(=O)[C@H](Cc1ccc(Cl)cc1)NC(=O)[C@@H](NC(=O)[C@H](C)NC(=O)[C@H](CC(=O)O)NC(=O)[C@@H](CCCNC(=N)N)NC(=O)[C@H](Cc1ccc(O)cc1)NC(=O)Cc1ccccc1)[C@@H](C)CC)[C@@H](C)O)C(C)C)[C@@H](C)CC)C(=O)N[C@H](CCCNC(=N)N)C(=O)N[C@@H](CCCCNC(=N)N)C(N)=O [Peptide 41, [PhAc-Tyr^1, D-Arg^2, Phe(pCl)^6, Har^9, Tyr(Et)^10, Abu^15, Nle^27, D-Arg^28, Har^29]hGH-RH(1-29)NH2] (PhAc-Y[dR]DAI[Phe(4-Cl)]TN[hArg]Y(Et)RKVL[Abu]QLSARKLLQDI[Nle][dR][hArg]-NH2)
GH response (% of control) 0 min [3]: 47 % of control | GH response (% of control) 30 min [3]: 16 % of control | GH response (% of control) 60 min [3]: 14 % of control | GH response (% of control) 90 min [3]: 15 % of control | GH response (% of control) 120 min [3]: 16 % of control | endocrine antagonistic potency: inhibition of the GH release stimulated by hGH-RH(1-29)NH2 (in words) ([3]; general statement, in vitro and in vivo): high endocrine antagonistic potencies | Tumor volume (mm^3) Final [4]: 341 ± 107* mm^3 | Tumor volume doubling time [4]: 28.2 ± 9.85 days | Tumor weight [4]: 579 ± 188 mg | Tumor volume Final (% inhibition) [4]: (54%) | Tumor weight (% inhibition) [4]: (17%) | Tumor volume (mm^3) Initial [4]: 66.7 ± 12.5 mm^3 | binding affinities to the tumoral receptors for GH-RH (in words) [2]: extremely high binding affinities

[PhAc-Tyr^1, D-Arg^2, Phe(pCl)^6, Har^9, 2-Nal^10, Abu^15, Nle^27, D-Arg^28, Har^29]hGH-RH(1-29)NH2 [Peptide 35]
GH response (% of control) 0 min [3]: 91 % of control | GH response (% of control) 30 min [3]: 57 % of control | GH response (% of control) 60 min [3]: 80 % of control | GH response (% of control) 90 min [3]: 66 % of control | GH response (% of control) 120 min [3]: 72 % of control | antitumor effect on PC-3 tumors (in words) [4]: more potent antitumor effect than reference peptide JV-1-38 | Tumor volume (mm^3) Final [4]: 261 ± 52.9** mm^3 | Tumor volume doubling time [4]: 17.0 ± 2.32 days | Tumor weight [4]: 286 ± 58.9 mg | Tumor volume Final (% inhibition) [4]: (68%) | Tumor weight (% inhibition) [4]: (59%) | Tumor volume (mm^3) Initial [4]: 65.7 ± 11.3 mm^3 | binding affinities to the tumoral receptors for GH-RH (in words) [2]: extremely high binding affinities

Source: US7452865B2, “Antagonistic analogs of GH RH (2003)” (The Administrare's of the Tulane Educational Fund, priority 2004, dated 2008)
